Measurements taken from patent US20240285670A1, “THERAPEUTIC TREATMENT OF TUMORS BY BLOCKING THE HEME SYNTHESIS-EXPORT AXIS” (Università degli Studi di Torino, priority 2021, published 2024).

Assays:
Type in all cases: cell-based, human
[1] = test system: SHSY5Y cells; assay: Flow cytometric analysis of apoptosis in SHSY5Y cells; details: 5 mM ALA for 72 hours
[2] = test system: Caco2 cells; assay: Heme content (fluorescence assay) in Caco2 cells; details: FLVCR1a-silenced vs scramble shRNA Caco2 cells, 5 mM 5-ALA, time course
Protocol: (A) Heme content in Caco2 cells treated with 5 mM 5-ALA (black bars and white bars) or with 5 mM 5-ALA+0.5 mM SA (light grey outlined bars) for the indicated time points. […] Values are expressed as relative fluorescence intensity. Data represent mean±SEM, n=2. For statistical analyses, a two-way analysis of variance was used, followed by the Bonferroni correction for multiple group comparisons; **=p<0.01, ***=p<0.001. 5-ALA, 5-aminolevulinic acid; SA, succinylacetone. (B) Intracellular 5-ALA levels. […] Values are expressed as peak area/μg proteins. Data represent mean±SEM of n=4 wells pooled from two independent experiments. For statistical analyses, an unpaired Student's t-test was used; **=p<0.01. 5-ALA, 5-aminolevulinic acid. […] Values are expressed as peak area/μg proteins. […] Transcript abundance, normalized to beta-actin mRNA expression, is expressed as a fold increase over a calibrator sample. […] Band intensities were measured by densitometry and normalized to vinculin expression. […]
Intracellular heme concentration was measured using a fluorescence assay, as previously reported (Sinclair et al., 2001). […] Fluorescence (wavelength: excitation 405 nm-emission 660-720 nm) of the resultant protoporphyrin was assessed on a Glomax Multi Detection System (Promega Corporation, Madison WI, USA).
The endogenous protoporphyrin content (measured in parallel unheated samples in oxalic acid) was subtracted. […]

[3] = test system: SKCO1 cells; assay: Flow cytometric analysis of apoptosis in SKCO1 cells; details: FLVCR1a-silenced vs scramble shRNA, synchronized SKCO1 cells
Text: (A) Proliferation of Caco2 cells assessed by crystal violet staining at the indicated days; bar=1000 μm. […] Staining quantification is reported in the bar graph as percentage of crystal violet stained area. Data represent mean±SEM, n=4. For statistical analyses, a two-way analysis of variance was used, followed by the Bonferroni correction for multiple group comparisons; *=p<0.05, ***=p<0.001. (B) Caco2 cells viability the day of plating (day 0) and three days after plaiting (day 3). The measure is considered a readout of cell proliferation. […] Data represent mean±SEM, n=3 wells. For statistical analyses, a two-way analysis of variance was used, followed by the Bonferroni correction for multiple group comparisons; *=p<0.05, **=p<0.01. (C, D, E) Representative flow cytometric analyses of apoptosis in synchronized Caco2 (C), SKCO1 (D) and C80 (E) cells. […] Data represent mean±SEM, n=4 wells pooled from two independent experiments. For statistical analyses, an unpaired Student's t-test was used; *=p<0.05, **=p<0.01. […]
Stained cells were analyzed using a FACSCanto II cytofluorimeter and processed with BD FACSDIVA Software v8.1 (BD Biosciences, Milan, IT; http://www.bdbiosciences.com/instruments/software/facsdiva/index.jsp/ RRID:SCR_001456), acquiring at least 10,000 events per sample or 25,000 cells per sample for cell cycle experiments.

In the case of `Cl.NCC(=O)CCC(=O)O` [5-ALA, 5-Aminolevulinic acid hydrochloride], the apoptosis [1] was “increased apoptosis”.
With “FLVCR1a shRNA: shRNA specifically down-regulating FLVCR1a without targeting FLVCR1b; pLKO.1 lentiviral clone TRCN0000059599, antisense SEQ ID No.: 2 (antisense TTGCTAATGATGCTGTACTGG; sense CCAGTACAGCATCATTAGCAA)” the “intracellular heme upon induction of heme biosynthesis” value [2] was “faster and higher increase in the amount of intracellular heme than control cells” and the apoptosis [3] was “increased apoptosis”.
